Molecular target: T1, recombinant human CL receptor/RAMP1 (Homo sapiens, UniProt O60894+Q16602)
T1 construct: expressed in transfected cells; membranes
Experiment: Recombinant receptor binding assay (125I-hCGRP)
Conditions: membranes of HEK 293 cells expressing recombinant human CL receptor/RAMP1; 10 pM 125I-hCGRP
Protocol: RECOMBINANT RECEPTOR: Human CL receptor (Genbank accession number L76380) was subcloned into the expression vector pIREShyg2 (BD Biosciences Clontech) as a 5′NheI and 3′ PmeI fragment. Human RAMP1 (Genbank accession number AJ001014) was subcloned into the expression vector pIRESpuro2 (BD Biosciences Clontech) as a 5′NheI and 3′NotI fragment. HEK 293 cells (human embryonic kidney cells; ATCC #CRL-1573) were cultured in DMEM with 4.5 g/L glucose, 1 mM sodium pyruvate and 2 mM glutamine supplemented with 10% fetal bovine serum (FBS), 100 units/mL penicillin and 100 μg/mL streptomycin, and maintained at 37° C. and 95% humidity. Cells were subcultured by treatment with 0.25% trypsin with 0.1% EDTA in HBSS. Stable cell line generation was accomplished by co-transfecting 10 μg of DNA with 30 μg Lipofectamine 2000 (Invitrogen) in 75 cm^2 flasks. CL receptor and RAMP1 expression constructs were co-transfected in equal amounts. Twenty-four hours after transfection the cells were diluted and selective medium (growth medium+[…] hygromycin and 1 μg/mL puromycin) was added the following day. A clonal cell line was generated by single cell deposition utilizing a FACS Vantage SE (Becton Dickinson). Growth medium was adjusted to 150 μg/mL hygromycin and 0.5 μg/mL puromycin for cell propagation.
RECOMBINANT RECEPTOR BINDING ASSAY: Cells expressing recombinant human CL receptor/RAMP1 were washed with PBS and harvested in harvest buffer containing 50 mM HEPES, 1 mM EDTA and Complete™ protease inhibitors (Roche). The cell suspension was disrupted with a laboratory homogenizer and centrifuged at 48,000 g to isolate membranes. The pellets were resuspended in harvest buffer plus 250 mM sucrose and stored at −70° C. For binding assays, 20 μg of membranes were incubated in 1 mL binding buffer (10 mM HEPES, pH 7.4, 5 mM MgCl2, and 0.2% BSA) for 3 h at room temperature containing 10 pM ^125I-hCGRP (GE Healthcare) and antagonist. The assay was terminated by filtration through 96-well GFB glass fiber filter plates (PerkinElmer) that had been blocked with 0.05% polyethyleneimine. The filters were washed 3 times with ice-cold assay buffer (10 mM HEPES, pH 7.4, and 5 mM MgCl2). Scintillation fluid was added and the plates were counted on a Topcount (Packard). Non-specific binding was determined and the data analysis was carried out with the apparent dissociation constant (Ki) determined by using a non-linear least squares fitting the bound CPM data to the equation below: […]
Where Y is observed CPM bound, Ymax is total bound counts, Ymin is non specific bound counts, (Ymax−Ymin) is specific bound counts, % Imax is the maximum percent inhibition, % I min is the minimum percent inhibition, radiolabel is the probe, and the Kd is the apparent dissociation constant for the radioligand for the receptor as determined by hot saturation experiments.

T1 sequence (Q16602 23-461): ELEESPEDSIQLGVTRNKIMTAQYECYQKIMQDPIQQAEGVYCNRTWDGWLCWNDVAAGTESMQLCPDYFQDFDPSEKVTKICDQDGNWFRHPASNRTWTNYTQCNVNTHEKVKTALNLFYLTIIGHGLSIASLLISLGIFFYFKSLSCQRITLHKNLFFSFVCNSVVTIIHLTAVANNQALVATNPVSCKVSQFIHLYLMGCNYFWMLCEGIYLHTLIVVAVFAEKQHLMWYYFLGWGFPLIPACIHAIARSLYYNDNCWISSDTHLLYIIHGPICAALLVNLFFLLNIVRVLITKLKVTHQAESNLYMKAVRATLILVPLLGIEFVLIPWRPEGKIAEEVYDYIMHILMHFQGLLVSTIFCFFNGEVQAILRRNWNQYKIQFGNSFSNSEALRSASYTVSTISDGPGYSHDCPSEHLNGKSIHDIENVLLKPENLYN
T1 sequence (O60894 27-148): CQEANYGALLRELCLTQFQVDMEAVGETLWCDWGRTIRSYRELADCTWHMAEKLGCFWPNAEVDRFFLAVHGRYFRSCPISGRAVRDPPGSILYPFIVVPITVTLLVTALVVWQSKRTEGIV

Structure (SMILES) | Ki
C[C@@H]1[C@H](c2c(F)ccc(F)c2F)C[C@H](NC(=O)c2ccc3c(c2)C[C@@]2(C3)C(=O)NC(=O)N2C)C(=O)N1CC(F)(F)F [Example 2] | 0.048 nM
C[C@@H]1[C@H](c2cc(F)cc(F)c2F)C[C@H](NC(=O)c2ccc3c(c2)C[C@@]2(C3)C(=O)NC(=O)N2C)C(=O)N1CC(F)(F)F [Example 1, (4S)-3-Methyl-N-[(3S,5S,6R)-6-methyl-2-oxo-1-(2,2,2-trifluoroethyl)-5-(2,3,5-trifluorophenyl)piperidin-3-yl]-2,5-dioxo-1′,3′-dihydrospiro[imidazolidine-4,2′-indene]-5′-carboxamide] | 0.042 nM
Cc1ccccc1[C@@H]1C[C@H](NC(=O)c2ccc3c(c2)C[C@@]2(C3)C(=O)NC(=O)N2C)C(=O)N(CC(F)(F)F)[C@@H]1C [Example 5] | 1.9 nM
Cc1c(F)cccc1[C@@H]1C[C@H](NC(=O)c2ccc3c(c2)C[C@@]2(C3)C(=O)NC(=O)N2C)C(=O)N(CC(F)(F)F)[C@@H]1C [Example 7] | 0.5 nM
C[C@@H]1[C@H](c2c(F)c(F)cc(F)c2F)C[C@H](NC(=O)c2ccc3c(c2)C[C@@]2(C3)C(=O)NC(=O)N2C)C(=O)N1CC(F)(F)F [Example 4] | 0.036 nM
Cc1cccc([C@@H]2C[C@H](NC(=O)c3ccc4c(c3)C[C@@]3(C4)C(=O)NC(=O)N3C)C(=O)N(CC(F)(F)F)[C@@H]2C)c1 [Example 6] | 1.8 nM
C[C@@H]1[C@H](c2ccccc2)C[C@H](NC(=O)c2ccc3c(c2)C[C@@]2(C3)C(=O)NC(=O)N2C)C(=O)N1CC(F)(F)F [Example 3] | 0.36 nM

Reference: patent US20140005214A1, “PIPERIDINONE CARBOXAMIDE SPIROHYDANTOIN CGRP RECEPTOR ANTAGONISTS” (priority 2011, published 2014)
